Test results as given in patent publication US8410112B2, “Compounds useful as inhibitors of ATR kinase” (Vertex Pharmaceuticals Incorporated, priority 2008, dated 2013).

biological target: T1, full-length ATR (Homo sapiens, UniProt Q13535); test: ATR Inhibition Assay (radioactive-phosphate incorporation); format: biochemical; conditions: Ki(app); 5 nM full-length ATR, 10 μM ATP, 800 μM target peptide, 25° C.
T1 construct: in the presence of 5 nM full-length ATR
Method in brief: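 Buffer was 50 mM Tris/HCl pH 7.5, 10 mM MgCl2, 1 mM DTT, with 5 nM enzyme, 10 μM [γ-33P]ATP and 800 μM target peptide at 25 °C. Compound was pre-incubated 10 min before ATP start, and the reaction was stopped after 24 h. Phosphocellulose filter capture; Ki(app) came from non-linear regression of background-corrected initial rates.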

T1 sequence (Q13535 whole entry): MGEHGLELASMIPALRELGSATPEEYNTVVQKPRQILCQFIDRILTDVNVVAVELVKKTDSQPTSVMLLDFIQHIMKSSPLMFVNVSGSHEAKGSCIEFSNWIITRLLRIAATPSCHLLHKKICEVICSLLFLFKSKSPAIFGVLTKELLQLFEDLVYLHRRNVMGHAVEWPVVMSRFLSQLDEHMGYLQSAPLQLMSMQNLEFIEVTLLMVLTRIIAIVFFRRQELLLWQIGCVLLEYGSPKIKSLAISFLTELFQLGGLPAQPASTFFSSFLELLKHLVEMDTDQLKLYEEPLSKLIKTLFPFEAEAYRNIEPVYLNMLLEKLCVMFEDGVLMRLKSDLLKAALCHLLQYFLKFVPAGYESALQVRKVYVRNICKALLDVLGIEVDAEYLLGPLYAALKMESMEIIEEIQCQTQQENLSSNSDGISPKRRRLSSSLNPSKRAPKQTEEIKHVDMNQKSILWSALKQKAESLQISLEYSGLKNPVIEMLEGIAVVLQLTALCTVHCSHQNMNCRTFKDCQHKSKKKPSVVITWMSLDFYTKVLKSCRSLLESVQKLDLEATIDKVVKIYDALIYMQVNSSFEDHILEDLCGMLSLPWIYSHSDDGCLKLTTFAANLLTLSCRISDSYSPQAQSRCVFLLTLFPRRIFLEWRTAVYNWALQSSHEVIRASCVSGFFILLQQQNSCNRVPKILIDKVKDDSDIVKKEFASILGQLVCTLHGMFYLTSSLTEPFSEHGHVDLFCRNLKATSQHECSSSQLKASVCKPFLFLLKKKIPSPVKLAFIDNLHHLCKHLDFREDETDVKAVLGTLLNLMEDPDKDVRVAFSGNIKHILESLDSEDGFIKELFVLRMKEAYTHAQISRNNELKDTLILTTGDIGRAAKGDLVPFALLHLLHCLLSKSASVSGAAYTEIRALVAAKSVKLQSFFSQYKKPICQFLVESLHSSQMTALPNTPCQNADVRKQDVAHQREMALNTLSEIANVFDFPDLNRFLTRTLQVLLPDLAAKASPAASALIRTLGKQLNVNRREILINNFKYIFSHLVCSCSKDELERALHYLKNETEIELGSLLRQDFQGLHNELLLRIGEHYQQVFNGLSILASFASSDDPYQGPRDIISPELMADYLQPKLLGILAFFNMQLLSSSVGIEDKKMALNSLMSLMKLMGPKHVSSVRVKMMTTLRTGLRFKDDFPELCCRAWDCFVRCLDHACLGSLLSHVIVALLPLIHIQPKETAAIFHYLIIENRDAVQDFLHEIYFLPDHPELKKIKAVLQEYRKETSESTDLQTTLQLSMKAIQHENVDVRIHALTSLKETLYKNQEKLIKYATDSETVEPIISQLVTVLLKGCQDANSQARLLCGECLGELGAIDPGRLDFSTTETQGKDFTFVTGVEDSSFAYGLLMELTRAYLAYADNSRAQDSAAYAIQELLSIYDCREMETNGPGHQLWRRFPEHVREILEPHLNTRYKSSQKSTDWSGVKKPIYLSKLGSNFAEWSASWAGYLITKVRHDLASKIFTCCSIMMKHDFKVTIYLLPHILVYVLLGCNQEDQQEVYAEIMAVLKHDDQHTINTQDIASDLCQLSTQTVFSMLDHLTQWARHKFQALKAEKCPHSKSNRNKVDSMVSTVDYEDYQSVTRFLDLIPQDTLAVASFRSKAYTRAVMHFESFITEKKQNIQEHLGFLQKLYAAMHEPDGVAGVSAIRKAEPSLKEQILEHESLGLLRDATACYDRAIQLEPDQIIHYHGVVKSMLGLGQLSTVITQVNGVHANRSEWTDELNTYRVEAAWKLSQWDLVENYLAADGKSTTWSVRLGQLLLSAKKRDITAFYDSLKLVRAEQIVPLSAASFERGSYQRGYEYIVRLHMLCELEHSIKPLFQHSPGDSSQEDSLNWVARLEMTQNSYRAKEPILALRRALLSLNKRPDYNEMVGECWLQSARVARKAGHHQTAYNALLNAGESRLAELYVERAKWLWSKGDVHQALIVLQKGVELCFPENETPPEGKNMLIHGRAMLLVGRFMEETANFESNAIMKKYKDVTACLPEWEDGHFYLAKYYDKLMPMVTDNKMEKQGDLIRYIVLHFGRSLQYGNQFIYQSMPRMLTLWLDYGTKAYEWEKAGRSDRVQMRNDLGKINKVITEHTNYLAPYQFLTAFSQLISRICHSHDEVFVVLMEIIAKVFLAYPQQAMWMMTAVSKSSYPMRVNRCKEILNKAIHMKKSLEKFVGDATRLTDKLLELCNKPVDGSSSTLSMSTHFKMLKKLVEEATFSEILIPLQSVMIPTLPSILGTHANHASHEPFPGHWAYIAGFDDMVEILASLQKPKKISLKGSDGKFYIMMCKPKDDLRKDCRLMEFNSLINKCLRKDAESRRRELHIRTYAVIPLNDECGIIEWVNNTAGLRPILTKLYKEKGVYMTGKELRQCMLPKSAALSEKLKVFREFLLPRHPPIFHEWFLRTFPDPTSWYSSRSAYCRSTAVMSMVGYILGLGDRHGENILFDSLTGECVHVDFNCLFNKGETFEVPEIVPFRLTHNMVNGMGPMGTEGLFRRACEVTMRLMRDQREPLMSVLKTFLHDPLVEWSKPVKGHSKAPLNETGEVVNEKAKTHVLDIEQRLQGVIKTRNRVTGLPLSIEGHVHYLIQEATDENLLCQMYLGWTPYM

SMILES | Ki [nM]
CN(C)S(=O)(=O)N1CC=C(c2cnc(N)c(-c3nc4ccccc4[nH]3)n2)CC1 [Compound I-89, 4-(5-amino-6-(1H-benzo[d]imidazol-2-yl)pyrazin-2-yl)-N,N-dimethyl-5,6-dihydropyridine-1(2H)-sulfonamide] | < 100
Nc1ncc(N2CCN(S(=O)(=O)c3ccoc3)CC2)nc1-c1nnc(-c2ccccc2)o1 [Compound I-90, 5-(4-(furan-3-ylsulfonyl)piperazin-1-yl)-3-(5-phenyl-1,3,4-oxadiazol-2-yl)pyrazin-2-amine] | 100 to 1000
Cn1cnc(S(=O)(=O)N2CCN(c3cnc(N)c(-c4nc5ccccc5[nH]4)n3)CC2)c1 [Compound I-91, 3-(1H-benzo[d]imidazol-2-yl)-5-(4-(1-methyl-1H-imidazol-4-ylsulfonyl)piperazin-1-yl)pyrazin-2-amine] | 100 to 1000
Nc1ncc(N2CCN(S(=O)(=O)C3CCCC3)CC2)nc1-c1nnc(-c2ccccc2)o1 [Compound I-92, 5-(4-(cyclopentylsulfonyl)piperazin-1-yl)-3-(5-phenyl-1,3,4-oxadiazol-2-yl)pyrazin-2-amine] | 100 to 1000
Nc1ncc(C2=CCN(S(=O)(=O)C3CC3)CC2)nc1-c1nc2ccccc2[nH]1 [Compound I-93, 3-(1H-benzo[d]imidazol-2-yl)-5-(1-(cyclopropylsulfonyl)-1,2,3,6-tetrahydropyridin-4-yl)pyrazin-2-amine] | < 100
Cn1cnc(S(=O)(=O)N2CC=C(c3cnc(N)c(-c4nc5ccccc5[nH]4)n3)CC2)c1 [Compound I-94, 3-(1H-benzo[d]imidazol-2-yl)-5-(1-(1-methyl-1H-imidazol-4-ylsulfonyl)-1,2,3,6-tetrahydropyridin-4-yl)pyrazin-2-amine] | < 100
CCCS(=O)(=O)N1CCN(c2cnc(N)c(-c3nc4ccccc4[nH]3)n2)CC1 [Compound I-95, 3-(1H-benzo[d]imidazol-2-yl)-5-(4-(propylsulfonyl)piperazin-1-yl)pyrazin-2-amine] | 100 to 1000
Nc1ncc(N2CCN(S(=O)(=O)c3cccs3)CC2)nc1-c1nnc(-c2ccccc2)o1 [Compound I-96, 3-(5-phenyl-1,3,4-oxadiazol-2-yl)-5-(4-(thiophen-2-ylsulfonyl)piperazin-1-yl)pyrazin-2-amine] | 100 to 1000
CC(C)S(=O)(=O)N1CCN(c2cnc(N)c(-c3nc4ccccc4[nH]3)n2)CC1 [Compound I-97, 3-(1H-benzo[d]imidazol-2-yl)-5-(4-(isopropylsulfonyl)piperazin-1-yl)pyrazin-2-amine] | 100 to 1000
Nc1ncc(N2CCN(S(=O)(=O)c3ccsc3)CC2)nc1-c1nnc(-c2ccccc2)o1 [Compound I-98, 3-(5-phenyl-1,3,4-oxadiazol-2-yl)-5-(4-(thiophen-3-ylsulfonyl)piperazin-1-yl)pyrazin-2-amine] | 100 to 1000
Nc1ncc(N2CCN(S(=O)(=O)Cc3ccccc3)CC2)nc1-c1nnc(-c2ccccc2)o1 [Compound I-99, 5-(4-(benzylsulfonyl)piperazin-1-yl)-3-(5-phenyl-1,3,4-oxadiazol-2-yl)pyrazin-2-amine] | 100 to 1000
Nc1ncc(C2=CCN(S(=O)(=O)Cc3ccccc3)CC2)nc1-c1nnc(-c2ccccc2)o1 [Compound I-100, 5-(1-(benzylsulfonyl)-1,2,3,6-tetrahydropyridin-4-yl)-3-(5-phenyl-1,3,4-oxadiazol-2-yl)pyrazin-2-amine] | < 100
Nc1ncc(C2=CCN(S(=O)(=O)c3ccccc3)CC2)nc1-c1nnc(-c2ccccc2)o1 [Compound I-102, 3-(5-phenyl-1,3,4-oxadiazol-2-yl)-5-(1-(phenylsulfonyl)-1,2,3,6-tetrahydropyridin-4-yl)pyrazin-2-amine] | < 100
Nc1ncc(C2=CCN(C(=O)c3ccccc3)CC2)nc1-c1nnc(-c2ccccc2)o1 [Compound I-103, (4-(5-amino-6-(5-phenyl-1,3,4-oxadiazol-2-yl)pyrazin-2-yl)-5,6-dihydropyridin-1(2H)-yl)(phenyl)methanone] | < 100
Nc1ncc(N2CCN(S(=O)(=O)c3cccs3)CC2)nc1-c1nc2ccccc2[nH]1 [Compound I-104, 3-(1H-benzo[d]imidazol-2-yl)-5-(4-(thiophen-2-ylsulfonyl)piperazin-1-yl)pyrazin-2-amine] | 100 to 1000
Nc1ncc(C2=CCN(S(=O)(=O)c3ccsc3)CC2)nc1-c1nc2ccccc2[nH]1 [Compound I-105, 3-(1H-benzo[d]imidazol-2-yl)-5-(1-(thiophen-3-ylsulfonyl)-1,2,3,6-tetrahydropyridin-4-yl)pyrazin-2-amine] | < 100
Nc1ncc(N2CCN(S(=O)(=O)Cc3ccccc3)CC2)nc1-c1nc2ccccc2[nH]1 [Compound I-106, 3-(1H-benzo[d]imidazol-2-yl)-5-(4-(benzylsulfonyl)piperazin-1-yl)pyrazin-2-amine] | 100 to 1000
Nc1ncc(N2CC[C@H](NS(=O)(=O)c3ccccc3)C2)nc1-c1nc2ccccc2[nH]1 [Compound I-107, (S)-N-(1-(5-amino-6-(1H-benzo[d]imidazol-2-yl)pyrazin-2-yl)pyrrolidin-3-yl)benzenesulfonamide] | 100 to 1000

SMILES | Ki [nM]
Nc1ncc(N2CC[C@H](NC(=O)c3ccccc3)C2)nc1-c1nc2ccccc2[nH]1 [Compound I-108, (S)-N-(1-(5-amino-6-(1H-benzo[d]imidazol-2-yl)pyrazin-2-yl)pyrrolidin-3-yl)benzamide] | 100 to 1000
Nc1ncc(N2CCN(C(=O)c3ccccc3)CC2)nc1C(=O)Nc1ccccn1 [Compound I-109, 3-amino-6-(4-(phenylcarbonyl)piperazin-1-yl)-N-(pyridin-2-yl)pyrazine-2-carboxamide] | 1000 to 10000
Nc1ncc(N2CCN(S(=O)(=O)c3ccccc3)CC2)nc1-c1nc2ccccc2[nH]1 [Compound I-110, 3-(1H-benzo[d]imidazol-2-yl)-5-(4-(phenylsulfonyl)piperazin-1-yl)pyrazin-2-amine] | 100 to 1000
CC(C)(C)C(=O)N[C@H]1CCN(c2cnc(N)c(-c3nc4ccccc4[nH]3)n2)C1 [Compound I-111, (S)-N-(1-(5-amino-6-(1H-benzo[d]imidazol-2-yl)pyrazin-2-yl)pyrrolidin-3-yl)-2,2-dimethylpropanamide] | 100 to 1000
Nc1ncc(N2CCN(C(=O)C3CCCCC3)CC2)nc1-c1nc2ccccc2[nH]1 [Compound I-112, (4-(5-amino-6-(1H-benzo[d]imidazol-2-yl)pyrazin-2-yl)piperazin-1-yl)(cyclohexyl)methanone] | 100 to 1000
CCOC(=O)N1CCN(c2cnc(N)c(C(=O)Nc3ccccn3)n2)CC1 [Compound I-113, ethyl 4-(5-amino-6-(pyridin-2-ylcarbamoyl)pyrazin-2-yl)piperazine-1-carboxylate] | 1000 to 10000
Nc1ncc(N2CCN(C(=O)N3CCOCC3)CC2)nc1C(=O)Nc1ccccn1 [Compound I-114, 3-amino-6-(4-(morpholine-4-carbonyl)piperazin-1-yl)-N-(pyridin-2-yl)pyrazine-2-carboxamide] | 1000 to 10000
CC#CCOC(=O)N1CC=C(c2cnc(N)c(-c3nnc(-c4ccccc4)o3)n2)CC1 [Compound I-115, but-2-ynyl 4-(5-amino-6-(5-phenyl-1,3,4-oxadiazol-2-yl)pyrazin-2-yl)-5,6-dihydropyridine-1(2H)-carboxylate] | < 100
Nc1ncc(N2CCN(S(=O)(=O)c3cccs3)CC2)nc1C(=O)Nc1ccccn1 [Compound I-116, 3-amino-N-(pyridin-2-yl)-6-(4-(thiophen-2-ylsulfonyl)piperazin-1-yl)pyrazine-2-carboxamide] | 100 to 1000
Nc1ncc(N2CCN(S(=O)(=O)c3ccsc3)CC2)nc1C(=O)Nc1ccccn1 [Compound I-117, 3-amino-N-(pyridin-2-yl)-6-(4-(thiophen-3-ylsulfonyl)piperazin-1-yl)pyrazine-2-carboxamide] | 100 to 1000
Nc1ncc(N2CCN(S(=O)(=O)C3CC3)CC2)nc1C(=O)Nc1ccccn1 [Compound I-118, 3-amino-6-(4-(cyclopropylsulfonyl)piperazin-1-yl)-N-(pyridin-2-yl)pyrazine-2-carboxamide] | 100 to 1000
Nc1ncc(N2CCN(S(=O)(=O)c3ccoc3)CC2)nc1C(=O)Nc1ccccn1 [Compound I-119, 3-amino-6-(4-(furan-3-ylsulfonyl)piperazin-1-yl)-N-(pyridin-2-yl)pyrazine-2-carboxamide] | 100 to 1000
Cn1cnc(S(=O)(=O)N2CC=C(c3cnc(N)c(-c4nnc(-c5ccccc5)o4)n3)CC2)c1 [Compound I-120, 5-(1-(1-methyl-1H-imidazol-4-ylsulfonyl)-1,2,3,6-tetrahydropyridin-4-yl)-3-(5-phenyl-1,3,4-oxadiazol-2-yl)pyrazin-2-amine] | < 100
Nc1ncc(C2=CCN(S(=O)(=O)c3ccsc3)CC2)nc1-c1nnc(-c2ccccc2)o1 [Compound I-121, 3-(5-phenyl-1,3,4-oxadiazol-2-yl)-5-(1-(thiophen-3-ylsulfonyl)-1,2,3,6-tetrahydropyridin-4-yl)pyrazin-2-amine] | < 100
Nc1ncc(C2=CCN(S(=O)(=O)C3CC3)CC2)nc1-c1nnc(-c2ccccc2)o1 [Compound I-122, 5-(1-(cyclopropylsulfonyl)-1,2,3,6-tetrahydropyridin-4-yl)-3-(5-phenyl-1,3,4-oxadiazol-2-yl)pyrazin-2-amine] | < 100
Nc1ncc(C2=CCN(S(=O)(=O)c3ccoc3)CC2)nc1-c1nnc(-c2ccccc2)o1 [Compound I-123, 5-(1-(furan-3-ylsulfonyl)-1,2,3,6-tetrahydropyridin-4-yl)-3-(5-phenyl-1,3,4-oxadiazol-2-yl)pyrazin-2-amine] | < 100
CCCS(=O)(=O)N1CC=C(c2cnc(N)c(-c3nnc(-c4ccccc4)o3)n2)CC1 [Compound I-124, 3-(5-phenyl-1,3,4-oxadiazol-2-yl)-5-(1-(propylsulfonyl)-1,2,3,6-tetrahydropyridin-4-yl)pyrazin-2-amine] | < 100
CC(=O)N1CC=C(c2cnc(N)c(-c3nnc(-c4ccccc4)o3)n2)CC1 [Compound I-125, 1-(4-(5-amino-6-(5-phenyl-1,3,4-oxadiazol-2-yl)pyrazin-2-yl)-5,6-dihydropyridin-1(2H)-yl)ethanone] | < 100
